pIC50: −log10 of the molar value. Where no end group is shown, it is not given here. The star is where a group is joined. Dansyl = CN(C)c1cccc2c(S(=O)(=O)*)cccc12
What was measured:
[1] = tested on: PBP1b (penicillin-binding protein 1b); settings: cited from earlier work
[2] = tested on: Ras processing in ras-transformed NIH3T3; settings: cited from earlier work
Ras/ERK1/2 pathway = settings: rats; cited from earlier work
[3] = tested on: membrane-bound Ha-Ras / Ki-Ras; settings: cited from earlier work
Ha-Ras = settings: murine ischemic stroke model; cited from earlier work
recombinant human FTase = settings: cited from earlier work
rubber transferase = rubber transferase from Hevea Brasiliensis; cited from earlier work
tobacco BY-2 cells = settings: cited from earlier work
[4] = mild basic conditions (pH=7.5), hydrolysed to dicarboxylate anion 2; ref 10a; cited from earlier work
yeast FTase = biological target: T1, yeast FTase (Saccharomyces cerevisiae, UniProt P22007+P29703); assay: Yeast FTase continuous fluorescence assay; format: biochemical; settings: yeast FTase IC50, 27 vs 2
T1 sequence (P29703 1-316): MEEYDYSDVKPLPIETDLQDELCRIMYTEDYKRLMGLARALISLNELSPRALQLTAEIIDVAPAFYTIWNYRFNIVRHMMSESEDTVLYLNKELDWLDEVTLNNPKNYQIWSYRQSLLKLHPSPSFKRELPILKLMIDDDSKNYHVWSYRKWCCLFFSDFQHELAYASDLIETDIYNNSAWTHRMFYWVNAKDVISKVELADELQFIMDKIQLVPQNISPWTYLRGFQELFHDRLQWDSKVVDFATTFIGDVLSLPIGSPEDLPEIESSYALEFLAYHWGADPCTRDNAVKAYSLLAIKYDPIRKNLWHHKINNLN
T1 sequence (P22007 1-431): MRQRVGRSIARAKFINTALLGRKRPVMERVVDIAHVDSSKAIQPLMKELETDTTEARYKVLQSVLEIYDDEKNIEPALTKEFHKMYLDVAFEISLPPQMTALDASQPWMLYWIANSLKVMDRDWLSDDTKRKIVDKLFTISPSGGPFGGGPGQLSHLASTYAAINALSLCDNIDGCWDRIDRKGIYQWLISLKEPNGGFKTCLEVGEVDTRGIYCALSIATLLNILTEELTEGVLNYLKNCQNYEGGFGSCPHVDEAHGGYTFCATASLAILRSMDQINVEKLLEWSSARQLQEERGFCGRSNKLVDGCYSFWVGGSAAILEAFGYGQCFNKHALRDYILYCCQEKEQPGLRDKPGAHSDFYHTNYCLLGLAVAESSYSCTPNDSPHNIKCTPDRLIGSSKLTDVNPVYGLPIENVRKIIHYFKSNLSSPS

wild FTase = settings: peptide substrate; cited from earlier work

CCCCCCCCCCCCCC/C(C(=O)O)=C(\C)C(=O)O [compound 1, chaetomellic acid A]
Reduction of PBP1b activity [1]: modest potency
Inhibition of Ras processing [2]: did not inhibit
Effect on acute ischemia-reperfusion injury (renal function and histology) (Ras/ERK1/2 pathway): beneficial effect
Effect on membrane-bound Ha-Ras [3]: selectively inhibited
Effect on membrane-bound Ki-Ras [3]: did not alter
Production of superoxide anion and volume of cerebral necrotic tissue (Ha-Ras): significantly reducing
Mode of FTase inhibition towards the acceptor peptide Ras (recombinant human FTase; diacid anion of 1): noncompetitive
Mode of FTase inhibition with respect to farnesyl pyrophosphate (FPP) (recombinant human FTase; diacid anion of 1): highly competitive
Inhibition of rubber biosynthesis in vitro (rubber transferase): able to inhibit
Effect on cell cycle progression (tobacco BY-2 cells): specific arrest in the cell cycle

CCCCCCCCCCCCCC/C(C(=O)O)=C(\C)C(=O)O [compound 2]
pIC50 (recombinant human FTase; read-out: IC50 recombinant human FTase, dianionic form): 7.26

CCCCCCCCCCCCCCC1=C(C)C(=O)OC1=O [compound 3, chaetomellic anhydride A]
Stability of the cyclic (anhydride) form [4]: unstable

CCCCSCCCCCCCCC/C(C(=O)[O-])=C(\C)C(=O)[O-].[Na+].[Na+] [compound 27, disodium salt of 2-(9-(butylthio)nonyl)-3-methylmaleic acid]
times more potent than ACA (yeast FTase): approximately 5

dansyl-Gly-Cys-Val-Ile-Ala (Dansyl-GCVIA)
kcat (wild FTase): > 0.2 s⁻¹

dansyl-Gly-Cys-Val-Leu-Ser (Dansyl-GCVLS)
kcat (wild FTase): 0.4 s⁻¹
